The target in data set [1] is T1, Z-alpha-1-antitrypsin (Z-A1AT) (Homo sapiens, UniProt P01009, E366K/V237A).
T1 construct: Z-alpha-1-antitrypsin was purified from human plasma; from tissue; host or cells: human plasma of ZZ homozygous donors
The data set is described as follows: Inhibition of Z-alpha-1-antitrypsin polymerisation TR-FRET assay. In kind it is biochemical. As to conditions: mean, 5 nM Z-A1AT, 72 hours at 37° C. The text has this: The potencies of the compounds of the invention for inhibition of Z-alpha-1-antitrypsin (Z-A1AT) polymerisation can be determined by a time-resolved fluorescence energy transfer (TR-FRET) assay performed on purified Z-A1AT as described herein. […] Mean activity data for the assay described below for compounds 1-4:
Inhibition of Z-Alpha-1-Antitrypsin Polymerisation Assay Protocol
Z-alpha-1-antitrypsin was purified from human plasma of donors homozygous for the Z-A1AT form. The purification was performed according to a published protocol (Lomas et al. Biochemistry 1993; 32:500-508) involving ammonium sulphate precipitation, thiol exchange fractionation, and anion exchange fractionation.
Purified Z-A1AT was diluted to 5 nM in PBS buffer with 0.01% Tween-20 and mixed with different concentrations of inhibitor compounds dissolved in DMSO, in 384-well assay plates. Following incubation for 72 hours at 37° C., the amount of Z-A1AT polymer was detected using a time-resolved fluorescence resonance energy transfer (TR-FRET) assay format, by adding an antibody detection mix to the assay plates. The detection mix contained an A1AT-polymer specific monoclonal antibody (Miranda et al. Hepatology 2010; 52: 1078-1088), Terbium-labelled anti-mouse antibody, a polyclonal rabbit anti-A1AT antibody, and an Alexa488-labelled anti-rabbit antibody. TR-FRET data were normalised to controls (DMSO vehicle control giving 0% inhibition, saturating concentrations of an active compound giving 100% inhibition), and IC50 values were derived by fitting 4-parameter logistic curves to the normalised data.
An antibody-based time-resolved fluorescence resonance energy transfer (TR-FRET) assay was used to monitor the polymerisation of 5 nM Z α1-antitrypsin following incubation with varying concentrations of compounds at 37° C. for 72 hours. This assay used the 2C1 monoclonal antibody that is specific to pathological polymers of α1-antitrypsin (Miranda et al. Hepatology 2010; 52: 1078-1088), a polyclonal antibody that binds to all forms of α1-antitrypsin, an anti-mouse IgG fluorescence donor (Eu-W1024) and an anti-rabbit IgG acceptor (APC).

The next data set is described as follows: ChromLogD. In kind it is physicochemical.

Molecules are shown by their SMILES.

T1 sequence (P01009 25-418 V237A/E366K): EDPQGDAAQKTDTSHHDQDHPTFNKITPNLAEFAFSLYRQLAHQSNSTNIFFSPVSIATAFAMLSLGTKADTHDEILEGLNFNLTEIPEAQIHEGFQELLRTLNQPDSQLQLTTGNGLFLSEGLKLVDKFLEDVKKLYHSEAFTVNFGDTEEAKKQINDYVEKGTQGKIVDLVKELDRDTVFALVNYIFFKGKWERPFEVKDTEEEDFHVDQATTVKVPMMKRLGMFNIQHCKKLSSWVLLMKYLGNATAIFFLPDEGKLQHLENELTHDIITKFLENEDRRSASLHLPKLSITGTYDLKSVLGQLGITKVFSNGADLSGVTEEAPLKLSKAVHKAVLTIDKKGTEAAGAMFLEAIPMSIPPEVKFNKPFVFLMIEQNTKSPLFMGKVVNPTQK

The IC50 is the concentration at which inhibition is half-maximal. A higher IC50 goes with weaker potency in that assay. With `CCC[C@@H](NC(=O)c1cccc2c1CC(=O)N2)[C@@H](O)c1cccc(F)c1C` [Compound 1, N-[(1S,2R)-1-(3-fluoro-2-methylphenyl)-1-hydroxypentan-2-yl]-2-oxo-2,3-dihydro-1H-indole-4-carboxamide], the IC50 in data set [1] is 5.01 nM. Further, the “ChromLogD (pH7.4)” value in the data set “ChromLogD” came out at 3.8.

The values above are taken from patent US11919856B2, “Compounds” (UCL BUSINESS LTD, priority 2018, dated 2024).
